Results taken from patent US9724380B2, “Method and compositions for synchronizing time of insemination in gilts” (JBS UNITED ANIMAL HEALTH II LLC, priority 2012, dated 2017).

Tested on: gilts
Experiment: Example 5: estrus observation after triptorelin gel dose groups
Assay type: in vivo, swine
Details: raw average, PTK 2-07
Experimental: All gilts were individually fed MATRIX® as a top-dress for 14 or 15 days at the recommended rate of 15 mg/gilt/day. Gilts were withdrawn from MATRIX® feeding (last top-dress in the morning on Day 0) and allocated to each of the following treatments. Controls were vehicle gel treated (vehicle gel without triptorelin) at 120 (+/−2) hours following MATRIX® withdrawal (last top dress). The other gilts were given 100, 200 or 400 mcg triptorelin as the acetate in a methylcellulose gel formulation 120 (+/−2) hours following MATRIX® withdrawal. The four treatments were: • 1. Vehicle gel (VG): vehicle gel without triptorelin at 120 (+/−2) hours after MATRIX® withdrawal. • 2. TG 100: 100 mcg (2 mL 50 mcg/mL) triptorelin gel at 120 (+/−2) hours after MATRIX® withdrawal. • 3. TG 200: 200 mcg (2 mL 100 mcg/mL) triptorelin gel at 120 (+/−2) hours after MATRIX® withdrawal. • 4. TG 400: 400 mcg (2 mL 200 mcg/mL) triptorelin gel at 120 (+/−2) hours after MATRIX® withdrawal.
Triptorelin (pGlu-His-Trp-Ser-Tyr-D-Trp-Leu-Arg-Pro-Gly-NH2) was supplied in the acetate form, from Bachem, Torrance, Calif. (Item H-4075 CGMP grade). Triptorelin gel (100-400 mcg/2 mL dose) was formulated by Argenta (Auckland, NZ) in a gel composed of Methocel Premium A4000 (Dow Chemical), citrate buffer (pH 5.5), NaCl, methionine, and methyl and propyl parabens. Fifty-four milliliters of triptorelin gel (100 mcg triptorelin acetate/mL) was packaged in Amber Borosilicate Glass Serum Vials (610206-50) with a Gray Butyl Pharmaceutical Serum Vial Stopper (73828A-SS) with a Standard Aluminum Seal (SAS20NAT). […] MATRIX® was supplied as the US commercially available form.
For post-treatment estrus detection, gilts were housed in individual pens. Boars were housed in separate rooms, and/or at least 12 m away and downwind. To elicit signs of estrus, a mature boar was walked slowly in the alley in front of the gilts' crates, exposing each test gilt to visual, auditory and olfactory signals from the boar for up to 5 minutes. In keeping with standard practice at commercial farms, while the boar was near the front of the gilt's crate, estrus was tested by an experienced person applying back pressure to the midsection of the gilt combined with side rubbing. Estrus was confirmed when a gilt stood rigidly to the back pressure, with no vocalization and with some indication of an ear reflex. Gilts were not exposed to boars during the first three days after withdrawal of MATRIX® (Day 0 to Day 2). Estrus detection was performed daily on all gilts from Day 3 to Day 7.
A single 2 mL dose of triptorelin gel or vehicle gel was deposited within approximately 1-2 cm posterior to the cervix with a catheter similar to those used for artificial insemination. The dose was delivered using a standard multi-dose applicator attached to the catheter. […]

CC(C)C[C@H](NC(=O)[C@@H](Cc1c[nH]c2ccccc12)NC(=O)[C@H](Cc1ccc(O)cc1)NC(=O)[C@H](CO)NC(=O)[C@H](Cc1c[nH]c2ccccc12)NC(=O)[C@H](Cc1c[nH]cn1)NC(=O)[C@@H]1CCC(=O)N1)C(=O)N[C@@H](CCCNC(=N)N)C(=O)N1CCC[C@H]1C(=O)NCC(N)=O [T, pGlu-His-Trp-Ser-Tyr-D-Trp-Leu-Arg-Pro-Gly-NH2]
Estrous Expression (%) (100 mcg T at 120 h post-MATRIX): 75.0% | Estrous Expression (%) (200 mcg T at 120 h post-MATRIX): 81.0%
